In US5215979A, “16,17-acetalsubstituted pregnane 21-oic acid derivatives” (priority 1985, dated 1993):
Values joined by “and” are separate entries in the source; they are usually repeats but may differ in a detail not shown here. Equal entries are not always repeated. Where two headings read alike, the source gives them in different places.

Legend:
[1] = cited from earlier work; for Plasma half life: after absorption of inhaled GCS; for Site of inactivation (in words): after absorption
[2] = cited from earlier work; for Unwanted GCS actions within the general circulation (in words): highest of the recommended doses for inhalation; for Safety margin (in words): inhaled GCS, highest recommended doses for inhalation
[3] = test system: interstitial lung edema; assay: Sephadex model in the rat: lung edema after Sephadex bead instillation, glucocorticosteroid instilled in left lung lobe; assay type: in vivo, Sprague-Dawley rats; settings: for ED50: Rattus norvegicus, read-out: ED50 left lung lobe (required glucocorticosteroid dose to reduce the edema by 50%); for Selectivity ratio ED50 right lung / ED50 left lung: instillation into left lung lobe, higher = more selective for application site
Source text: The selectivity for anti-inflammatory effect at the application site in the lung has been investigated in a model system in the rat after intrabronchial instillation of the glucocorticosteroid.
Instillation of Sephadex beads into rat lung leads to bronchial and alveolar inflammation. This provokes interstitial lung edema, which increases the lung weight and the inflammation can be graded as the increase of the lung weight compared to a vehicle-instilled control group. The lung edema formation can be counteracted by pretreatment with glucocorticosteroids, preferably the local administration as intrabronchial installation or as inhalation. Ideally, an anti-inflammatory action should be obtained only at the site of glucocorticosteroid application in the lung but not outside this area, as this in long term treatment can lead to therapy limiting systemic side effects.
(§1) The differentiation between glucocorticosteroid action in the treated lung region and outside this area has been tested by the following test protocol. Sprague-Dawley rats (225 g) were slightly anesthetized with ether and the glucocorticosteroid test preparation in a volume of 0.5 ml/kg was instilled into just the left lung lobe. […] Thirty minutes later, a suspension of Sephadex (5 mg/kg in a volume of 1 ml/kg) was instilled in the trachea well above the bifurcation so that the suspension reached both the left and right lung lobes. Twenty hours later the rats were killed and the left and right lung lobes were dissected out and weighed separately. Also the thymus weight was recorded. Control groups got vehicle instead of glucocorticosteroid preparation and saline instead of Sephadex suspension to determine the weight of non-drug protected Sephadex edema and the normal lung weight, respectively. For each glucocorticosteroid preparation at least 3 doses within the range 0.01-10 mg/kg and with each ≥6 parallels/dose were tested. The glucocorticosteroids were suspended in a vehicle of CMC-Na 0.75%, Tween 80 0.04%, and 0.7% NaCl ad 100%.
For a strict local anti-inflammatory treatment of airway diseases the ideal profile of a compound is that it should counteract the inflammation in the locally treated left lung lobe, but not in the right lung half, which is anticipated to be reached by glucocorticosteroid first via the systemic circulation (after absorption from the left lung). The ratio between the required ED50 's (doses reducing the edema by 50%) in the right and left lung halves, respectively, can be used as a parameter for estimation of the selective activity for the application site. For an ideal glucocorticosteroid this selectivity ratio should be high.

[4] = test system: thymus; assay: Thymus weight recorded in the Sephadex model (systemic effect); assay type: in vivo, Sprague-Dawley rats; settings: for Thymus involution % (dose mg/kg): relative to Sephadex control group
Method: as §1

[5] = in vivo; cited from earlier work
[6] = compared with budesonide or BDP; cited from earlier work
[7] = intrabronchial instillation into left lung lobe 30 min before Sephadex, lungs weighed 20 h later

SMILES	ED50 [3, 7] [mg/kg]	Selectivity ratio ED50 right lung / ED50 left lung [3]	Thymus involution % (dose mg/kg) ([4]; dose 10 mg/kg) [%]	other results
CCC(=O)OCC(=O)[C@@]1(OC(=O)CC)[C@@H](C)C[C@H]2[C@@H]3CCC4=CC(=O)C=C[C@]4(C)[C@@]3(Cl)[C@@H](O)C[C@@]21C [beclomethasone 17α, 21-dipropionate]				Plasma half life [1]: ≥ 2 h; Site of inactivation (in words) [1]: inactivated mainly in the liver; Unwanted GCS actions within the general circulation (in words) [2]: unwanted GCS actions within the general circulation have been reported; Safety margin (in words) [2]: rather narrow safety margin
CCC[C@@H]1O[C@@H]2C[C@H]3[C@@H]4C[C@H](F)C5=CC(=O)C=C[C@]5(C)[C@@]4(F)[C@@H](O)C[C@]3(C)[C@]2(C(=O)C(=O)OC)O1 [Example 1, methyl (22R)-16α,17α-butylidenedioxy-6α, 9α-difluoro-11β-hydroxy-3,20-dioxopregna-1,4-diene-21-oate]	1.5	6.0	-3	Effect on thymus weight (in words) ([4]; dose 10 mg/kg): do not at all affect the thymus weight
CCCOC(=O)C(=O)[C@@]12O[C@H](CCC)O[C@@H]1C[C@H]1[C@@H]3C[C@H](F)C4=CC(=O)C=C[C@]4(C)[C@@]3(F)[C@@H](O)C[C@@]12C [Example 4, n-propyl (22R)-16α,17α-butylidenedioxy-6α,9α-difluoro-11β-hydroxy-3, 20-dioxopregna-1,4-diene-21-oate]	< 1	> 10	6	
CCCC1O[C@@H]2C[C@H]3[C@@H]4CCC5=CC(=O)C=C[C@]5(C)[C@H]4[C@@H](O)C[C@]3(C)[C@]2(C(=O)CO)O1 (some centres unmarked) [Budesonide]	0.2	~ 1.5 and 1.4		Selectivity for activity in the locally treated left lung lobe (in words) ([3]; compared with budesonide and FCB): does not reach any selectivity for the application site in lung; Thymus involution % (dose mg/kg) ([4]; dose 0.3 mg/kg): 22%; Plasma half life [1]: ≥ 2 h; Site of inactivation (in words) [1]: inactivated mainly in the liver; Selectivity for the application within airways (in words) [5]: low selectivity; Unwanted GCS actions within the general circulation (in words) [2]: unwanted GCS actions within the general circulation have been reported; Safety margin (in words) [2]: rather narrow safety margin
CCCCOC(=O)C(=O)[C@H]1[C@H](C)C[C@H]2[C@@H]3C[C@H](F)C4=CC(=O)C=C[C@]4(C)[C@H]3[C@@H](O)C[C@@]21C [FCB, fluocortin butyl ester]		2-3 and 2.5	6	ED50 ([3]; 20 h): 10 mg/kg; Half life time in plasma (in words) ([1]; compared with budesonide): as long half life time in plasma as budesonide; Potency (in words) [6]: lower potency
CCC[C@@H]1O[C@@H]2C[C@H]3[C@@H]4C[C@H](F)C5=CC(=O)C=C[C@]5(C)[C@@]4(F)[C@@H](O)C[C@]3(C)[C@]2(C(=O)C(=O)OC(C)C)O1 [Example 5, isopropyl (22R)-16α,17α-butylidenedioxy-6α,9α-difluoro-11β-hydroxy-3, 20-dioxopregna-1,4-diene-21-oate]	5	10.0	-1	Effect on thymus weight (in words) ([4]; dose 10 mg/kg): do not at all affect the thymus weight
CCC[C@@H]1O[C@@H]2C[C@H]3[C@@H]4C[C@H](F)C5=CC(=O)C=C[C@]5(C)[C@@]4(F)[C@@H](O)C[C@]3(C)[C@]2(C(=O)C(=O)OCC)O1 [Example 3, ethyl (22R)-16α,17α-butylidenedioxy-6α,9α-difluoro-11β-hydroxy-3, 20-dioxopregna-1,4-diene-21-oate]	1.7	5.9	15	
